Assay results taken from PubChem BioAssay (NCI).
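Growth conditions: 96-well plates. Treatment: test compound, 48 hours, 5 concentrations. Analysis: linear interpolation between bracketing concentrations; unreached endpoints set to highest concentration. GI50 = concentration required for 50% inhibition of growth. The concentration for full growth arrest is given as TGI.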

Assays:
Experiment in all cases: inhibition of tumour cell growth, NCI panel, 48 h
[1] = test system: DU-145 prostate
[2] = test system: SF-295 CNS
[3] = test system: LOX IMVI melanoma
[4] = test system: HS 578T breast
[5] = test system: UACC-62 melanoma
[6] = test system: K-562 leukemia
[7] = test system: MDA-MB-435
[8] = test system: NCI-H23 lung
[9] = test system: HCC-2998 colon
[10] = test system: T-47D breast
[11] = test system: CAKI-1 renal
[12] = test system: OVCAR-4 ovarian
[13] = test system: OVCAR-3 ovarian
[14] = test system: NCI-H522 lung
[15] = test system: SF-268 CNS
[16] = test system: EKVX NSCLC
[17] = test system: BT-549 breast
[18] = test system: PC-3 prostate
[19] = test system: A498 renal
[20] = test system: IGROV1 ovarian
[21] = test system: M14 melanoma
[22] = test system: SN12C renal
[23] = test system: TK-10 renal
[24] = test system: NCI-H460 lung
[25] = test system: SK-MEL-28 melanoma
[26] = test system: SW-620 colon
[27] = test system: HOP-92 NSCLC
[28] = test system: MALME-3M melanoma
[29] = test system: MDA-MB-468 breast
[30] = test system: ACHN renal
[31] = test system: COLO 205 colon
[32] = test system: U251 CNS
[33] = test system: UACC-257 melanoma
[34] = test system: SK-OV-3 ovarian
[35] = test system: SK-MEL-5 melanoma
[36] = test system: HCT-15 colon
[37] = test system: RPMI-8226 leukemia
[38] = test system: SF-539 CNS
[39] = test system: HCT-116 colon
[40] = test system: HL-60(TB) leukemia
[41] = test system: NCI-H226 lung
[42] = test system: MOLT-4 leukemia
[43] = test system: MCF7 breast
[44] = test system: KM12 colon
[45] = test system: SR leukemia
[46] = test system: SNB-19 CNS
[47] = test system: A549 NSCLC
[48] = test system: SNB-75 CNS
[49] = test system: HOP-62 NSCLC
[50] = test system: 786-0 renal
[51] = test system: MDA-MB-231 breast
[52] = test system: UO-31 renal
[53] = test system: OVCAR-5 ovarian
[54] = test system: OVCAR-8 ovarian
[55] = test system: RXF 393 renal
[56] = test system: SK-MEL-2 melanoma
[57] = test system: HT29 colon
[58] = test system: CCRF-CEM leukemia

O=C(c1ccc(Cl)cc1)C1[C@H](c2ccccc2Br)[C@@H](c2ccccc2)NC12C(=O)Nc1ccccc12 (stereo partly specified)
GI50 [1]: 2.66 µM | TGI [1]: 16.4 µM | GI50 [2]: 3.79 µM | TGI [2]: 15.2 µM | GI50 [3]: 1.99 µM | TGI [3]: 8.86 µM | GI50 [4]: 2.51 µM | TGI [4]: 15.6 µM | GI50 [5]: 2.11 µM | TGI [5]: 8.87 µM | GI50 [6]: 2.04 µM | TGI [6]: 28.3 µM | GI50 [7]: 2.58 µM | TGI [7]: 10.8 µM | GI50 [8]: 5.78 µM | TGI [8]: 17.3 µM | GI50 [9]: 6.32 µM | TGI [9]: 17.8 µM | GI50 [10]: 3.46 µM | TGI [10]: 49 µM | GI50 [11]: 1.67 µM | TGI [11]: > 56 µM | GI50 [12]: 7.11 µM | TGI [12]: > 56 µM | GI50 [13]: 2.39 µM | TGI [13]: 14 µM | GI50 [14]: 1.3 µM | TGI [14]: 5.72 µM | GI50 [15]: 2.92 µM | TGI [15]: 40.2 µM | GI50 [16]: 6.22 µM | TGI [16]: > 56 µM | GI50 [17]: 2.4 µM | TGI [17]: 10.5 µM | GI50 [18]: 2.03 µM | TGI [18]: 18.6 µM | GI50 [19]: 8.75 µM | TGI [19]: 21.6 µM | GI50 [20]: 5.92 µM | TGI [20]: 26.1 µM | GI50 [21]: 4.86 µM | TGI [21]: 13.7 µM | GI50 [22]: 2.74 µM | TGI [22]: 10 µM | GI50 [23]: 9.48 µM | TGI [23]: 40.7 µM | GI50 [24]: 2.3 µM | TGI [24]: 11.2 µM | GI50 [25]: 7.44 µM | TGI [25]: 16.3 µM | GI50 [26]: 3.43 µM | TGI [26]: 33.9 µM | GI50 [27]: 2.06 µM | TGI [27]: 14.5 µM | GI50 [28]: 6.46 µM | TGI [28]: 14.5 µM | GI50 [29]: 1.11 µM | TGI [29]: 3.33 µM | GI50 [30]: 6.01 µM | TGI [30]: 44.4 µM | GI50 [31]: 7.71 µM | TGI [31]: 15.6 µM | GI50 [32]: 3.16 µM | TGI [32]: 16 µM | GI50 [33]: 4.84 µM | TGI [33]: 20.7 µM | GI50 [34]: 3.87 µM | TGI [34]: 37 µM | GI50 [35]: 2.42 µM | TGI [35]: 9.07 µM | GI50 [36]: 4.03 µM | TGI [36]: > 56 µM | GI50 [37]: 5.43 µM | TGI [37]: 32.6 µM | GI50 [38]: 7.14 µM | TGI [38]: 15.7 µM | GI50 [39]: 2.15 µM | TGI [39]: 9.06 µM | GI50 [40]: 1.92 µM | TGI [40]: 19.1 µM | GI50 [41]: 3.85 µM | TGI [41]: 13.6 µM | GI50 [42]: 2.06 µM | TGI [42]: 18.5 µM | GI50 [43]: 1.81 µM | TGI [43]: > 56 µM | GI50 [44]: 7.5 µM | TGI [44]: 25.2 µM | GI50 [45]: 2 µM | TGI [45]: 14 µM | GI50 [46]: 10.8 µM | TGI [46]: > 56 µM | GI50 [47]: 2.71 µM | TGI [47]: 25 µM | GI50 [48]: 0.765 µM | TGI [48]: 27.9 µM | GI50 [49]: 6.54 µM | TGI [49]: 16.5 µM | GI50 [50]: 7.3 µM | TGI [50]: 21.9 µM | GI50 [51]: 1.72 µM | TGI [51]: 7.13 µM | GI50 [52]: 2.49 µM | TGI [52]: 29.3 µM | GI50 [53]: 6.34 µM | TGI [53]: 29.7 µM | GI50 [54]: 6.72 µM | TGI [54]: 19.9 µM | GI50 [55]: 1.77 µM | TGI [55]: 7.57 µM | GI50 [56]: 4.44 µM | TGI [56]: 11.9 µM | GI50 [57]: 2.46 µM | TGI [57]: 9.82 µM | GI50 [58]: 3.27 µM | TGI [58]: 29.8 µM
